This note sets out measurements from patent publication US6030963A, “16-ene-26,27-bishomo cholecalciferols” (Hoffmann-La Roche Inc., priority 1998, dated 2000).

Series [1] can be described thus: Calcium tolerance test in mice (weight gain, highest tolerated dose). Conditions: mouse, in vivo, sc, daily subcutaneous, 4 consecutive days, body weight before and at end of 5 day treatment period, read-out: HTD (highest tolerated dose: dose which results in zero weight gain during treatment period). The text has this: Calcium Tolerance Test In Mice
Profound changes in calcium homeostasis strongly affect the weight development of mice.
Mice (25-30 g body weight) received daily subcutaneous administrations of the compound for 4 consecutive days. Body weight was registered just before and at the end of a […] treatment period. The "highest tolerated dose" (HTD) is the dose which results in zero weight gain during this treatment period.

Series [2] relates to HL-60 cells. The experiment in a line: HL-60 cell differentiation (NBT reduction, oxidative burst potential). The class given is cell-based. The note with it: Homo sapiens, 72 h, 3 days incubation, NBT reduction at 540 nm, mean of 3 wells, S.E.M. between 5 and 10%, read-out: ED50 (concentration leading to 50% of maximal differentiation achieved with 100-1000 nM calcitriol). The procedure:
HL-60 Cell Differentiation
The induction of differentiation of HL-60 cells was assayed by measuring their oxidative burst potential via the reduction of nitrobluetetrazolium (NBT).
HL-60 cells (30,000 cells in 90 μl of supplemented RPMI medium) were seeded into flat-bottomed microliter wells. Immediately after seeding, 10 μl of test compounds listed below in Table I diluted in supplemented RPMI medium were added to the wells to yield final concentrations of between 10^-11 and 10^-6 M (starting from stock solutions of 10^-2 M in ethanol, stored at -20° C. and protected from light). After 3 days, medium was removed from the wells with a multichannel pipette and replaced with 100 μl of NBT solution (1 mg/ml in phosphate buffered saline with 200 nM phorbol myristate acetate). Following an additional hour incubation at 37° C. the NBT solution was removed and 100 μl of 10% sodium dodecyl sulfate in 0.01 N HCl was added. The amount of the reduced NBT was quantified photometrically at 540 nm using an automated plate reader. The mean of 3 wells was calculated. […] Values were expressed as percent of maximal differentiation achieved with 100-1000 nM calcitriol in the same experiment.

In the case of `C=C1/C(=C\C=C2/CCC[C@]3(C)C([C@H](C)C/C=C/C(O)(CC)CC)=CC[C@@H]23)C[C@@H](O)C[C@@H]1O` [1,25-Dihydroxy-16,23E-diene-26,27-bishomo-cholecalciferol], in series [1], the MTD was determined as 2 µg/kg. In series [2], the EC50 came out at 3.8 nM.

Turning to `C=C1/C(=C\C=C2/CCC[C@]3(C)C([C@H](C)C/C=C\C(O)(CC)CC)=CC[C@@H]23)C[C@@H](O)C[C@@H]1O` [1,25-Dihydroxy-16,23Z-diene-26,27-bishomo-cholecalciferol], the MTD in series [1] stood at 2.5 µg/kg. Further, the EC50 in series [2] turned out to be 6.2 nM.

Take `C=C1/C(=C\C=C2/CCC[C@]3(C)C([C@H](C)CC#CC(O)(CC)CC)=CC[C@@H]23)C[C@@H](O)C[C@@H]1O` [1,25-Dihydroxy-16-ene-23-yne-26,27-bishomo-cholecalciferol]: the MTD in series [1] turned out to be 4 µg/kg. The EC50 in series [2] was found to be 2.5 nM.
